Reference: patent US7867492B2, “Compounds for hedgehog pathway blockade in proliferative disorders, including hematopoietic malignancies” (The John Hopkins University, priority 2007, dated 2011)

How the values were obtained:
K-ras pathway = assay type: cell-based
Hh pathway [1] = assay type: cell-based
Gli = experiment: Hh reporter in 3T3 cells cotransfected with SmoA1, Gli2 or Gli1; assay type: cell-based; conditions: presence or absence of ShhN
Hh pathway [2] = experiment: ATO combined with cyclopamine, 8×Gli-luciferase reporter in 3T3 cells; assay type: cell-based; conditions: cyclopamine at fixed concentrations of […] and 0.125 μM, presence of ShhN
[3] = system: medulloblastoma from Ptch+/−p53−/− mice; experiment: Hh activity-induced medulloblastoma allografts in athymic nude mice; assay type: in vivo; conditions: daily intraperitoneal injection
Experimental: FIG. 7 is a pictorial and a graphical diagram showing that ATO inhibits growth of Hh activity-induced medulloblastoma allografts in nude mice. Primary medulloblastoma from Ptch+/−p53−/− mice were dissected and injected into athymic nude mice. The mice were injected daily with either control PBS or 3 different doses of ATO intraperitoneally.
The activity of ATO was then tested in vivo in a well-established model of a tumor that is dependent on Hh pathway activity for growth. In this model, primary medulloblastoma cells from Ptch+/−p53−/− mice were dissected and injected into athymic nude mice. The mice were then injected daily with either control PBS or 3 different doses of ATO intra-peritoneally.

Wnt pathway = experiment: Wnt reporter (7×TCF/LEF-luciferase) in 3T3 cells; assay type: cell-based; conditions: increasing concentrations, presence or absence of Wnt3a-conditioned medium
Text: 3T3 cells were transfected with a Wnt reporter (7×TCF/LEF-luciferase) and treated with increasing concentrations of ATO in the presence or absence of Wnt3a-conditioned medium.
To further assess the specificity of the arsenic effect on Hedgehog pathway signaling, 3T3 cells were transfected with a Wnt reporter (7×TCF/LEF-luciferase) and treated with increasing concentrations of ATO in the presence or absence of Wnt3a-conditioned medium.

O=[As][O-].[Na+] [NaAsO2]
K-ras pathway activity (SRE-luciferase reporter) (K-ras pathway): did not inhibit, and in fact stimulated the K-ras pathway | Hh signaling (reporter) (Hh pathway [1]): inhibits Hh signaling

arsenic trioxide [ATO]
Hh reporter activity induced by SmoA1, Gli2 or Gli1 over-expression (Gli): dramatically inhibited reporter activity | Effect of ATO on Hh pathway when combined with cyclopamine (Hh pathway [2]): significantly improved effect of ATO at lower concentrations | Tumor allograft growth ([3]; 3 different doses, athymic nude mice): suppressed tumor allograft growth in a concentration dependent manner | Tumor allograft growth at the highest concentration tested ([3]; highest concentration tested): complete growth suppression | Wnt pathway activity (7×TCF/LEF-luciferase reporter) (Wnt pathway): does not inhibit the Wnt pathway | Hh pathway activity (8×Gli-luciferase reporter) (Hh pathway [1]; NIH3T3 cells, increasing concentrations, presence or absence of ShhN-conditioned medium): inhibits Hh pathway in a dose-dependent manner
